Assay results: patent US20240018157A1, “CYCLIC COMPOUNDS AND METHODS OF USING SAME” (Schrödinger, Inc., priority 2019, published 2024)

Assays:
[1] = biological target: T1, full-length MALT1 protein His-MALT1(1-824) (Homo sapiens (Human), UniProt Q9UDY8); assay: MALT1 protease assay, Assay 1 (2 nM MALT1, Ac-LRSR-AMC substrate); assay type: biochemical; details: 2 nM MALT1, 50 μM Ac-LRSR-AMC, 2 h pre-incubation, 8 hr incubation at RT
Procedure: MALT1 protease activity was assessed in an in vitro assay using a tetrapeptide as substrate and full-length MALT1 protein His-MALT1(1-824) purified from baculovirus-infected insect cells.
The final assay buffer includes 1 nM (Assay 2) or 2 nM (Assay 1) of MALT1 full-length protein, 50 μM Ac-LRSR-AMC substrate, 50 mM Tris pH 7.5, 600 mM Sodium Citrate, 1 mM DTT, 1 mM EDTA, and 0.05% BSA in 384-well plate format using black microtiter square well plates (Optiplate 384-F, Perkin Elmer).
Test compounds were dissolved in 100% DMSO at stock of 10 mM, with final DMSO concentration 0.1%. Test compounds were pre-incubated with MALT1 protein for 2 h at room temperature. Substrate was added after the pre-incubation and fluorescence signal was measured using Envision at excitation 355 nm and emission 460 nm after 8 hr incubation at RT. Increase in the assay signal was linear over this period and proportional with increase in the enzyme content.
The fluorescence units were transformed to percentage of remaining activity by using the high control (HC, median of fluorescence signal from wells containing MALT1 protein, substrate, and DMSO) and low control (LC, median of fluorescence signal from wells with substrate only) with the formula below: […]
IC50 and Hill coefficient were obtained using Graph Pad Prism (Graph Pad software, Inc, USA) with non-linear regression analysis.

[2] = biological target: T1, full-length MALT1 protein His-MALT1(1-824); assay: MALT1 protease assay, Assay 2 (1 nM MALT1, Ac-LRSR-AMC substrate); assay type: biochemical; details: 1 nM MALT1, 50 μM Ac-LRSR-AMC, 2 h pre-incubation, 8 hr incubation at RT
In short: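 His-MALT1(1-824) from baculovirus-infected insect cells at 1 nM, preincubated 2 h at RT with compound (0.1% DMSO), then 50 μM Ac-LRSR-AMC in 50 mM Tris pH 7.5, 600 mM sodium citrate, 1 mM DTT, 1 mM EDTA, 0.05% BSA. Fluorescence (ex 355/em 460 nm) after 8 h at RT, normalized to enzyme and substrate-only controls. IC50 and Hill coefficient by non-linear regression.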

[3] = system: IL10 secretion, OCI-LY10 cells; assay: Human IL10 secretion assay, Assay 2 (Meso Scale Discovery); assay type: cell-based; details: 24 h incubation, MSD, read-out: IL-10 Secretion IC50 [nM] Assay 2
Procedure: (§1) IL10 is one of the cytokines that are regulated via activation of NF-kB signaling. For example, in ABC-DLBCL cell lines, the activated NF-kB signaling leads to increased IL10 secretion. Inhibition of NF-kB signaling has been shown leading to decreased IL10 secretion.
Assay 2: OCI-LY10 cells were seeded in IMEM supplemented with 20% fetal bovine serum at 4.8×10^5 cells per 160 μL per well in 96-well V-bottom cell culture plates (coming, 3894), treated with 120 nL of 3-fold serial compound dilutions, starting at 4 mM. The final vehicle concentration was 0.075% DMSO in all wells. After a 24 h incubation, human IL-10 pre-coated plates (Meso Scale Discovery) were washed 3 times with PBST, and 50 μL culture medium was aspirated into the MSD plate and incubated at 4° C. overnight. The supernatant was then discarded and the wells were washed 3 times with PBST. SULFO-TAG Anti-human IL-10 Antibody (50×) was diluted 50 fold according to the Meso Scale Protocol, then 25 μL of SULFO-TAG Anti-human IL-10 Antibody (1×) was added. After 2 h of incubation at RT, the supernatant was discarded and the well was washed 3 times with PBST. 2× read buffer was added and the signal was read on an MSD Sector S600. The effect of a particular compound on IL10 secretion is shown relative to the effect of DMSO; set as 100%. IC50 values (nM) were determined using 4-parametric curve-fitting.

[4] = system: IL10 secretion, OCI-LY10 cells; assay: Human IL10 secretion assay, Assay 1 (HTRF); assay type: cell-based; details: 24 h incubation, read-out: IL-10 Secretion IC50 [nM] Assay 1
Procedure: as §1
Assay 1: OCI-LY10 cells were seeded in IMEM supplemented with 20% fetal bovine serum at 3×10^5 cells per well in 96-well round bottom plates (Corning 3799, Corning), treated with 100 nL of 3-fold serial compound dilutions, starting at 10 mM. The final vehicle concentration was 0.1% DMSO in all wells. After 24 h incubation, the cells were transferred to 96-PCR plates (Axygen: PCR-96-FLT-C) and centrifuged, then 16 μL of cell culture media was transferred to HTRF plates and IL10 levels were measured using human IL-10 Assay Kits (Cisbio) using HTRF format. The signals were transformed to percentage of remaining activity by using the high control (HC, median of signal from wells containing cells treated with DMSO) and low control (LC, median of signal from wells with no cells). IC50 values (nM) were determined using 4-parametric curve-fitting and Hill coefficient were obtained using Graph Pad Prism (Graph Pad software, Inc, USA) with non-linear regression analysis.

T1 sequence (Q9UDY8 whole entry): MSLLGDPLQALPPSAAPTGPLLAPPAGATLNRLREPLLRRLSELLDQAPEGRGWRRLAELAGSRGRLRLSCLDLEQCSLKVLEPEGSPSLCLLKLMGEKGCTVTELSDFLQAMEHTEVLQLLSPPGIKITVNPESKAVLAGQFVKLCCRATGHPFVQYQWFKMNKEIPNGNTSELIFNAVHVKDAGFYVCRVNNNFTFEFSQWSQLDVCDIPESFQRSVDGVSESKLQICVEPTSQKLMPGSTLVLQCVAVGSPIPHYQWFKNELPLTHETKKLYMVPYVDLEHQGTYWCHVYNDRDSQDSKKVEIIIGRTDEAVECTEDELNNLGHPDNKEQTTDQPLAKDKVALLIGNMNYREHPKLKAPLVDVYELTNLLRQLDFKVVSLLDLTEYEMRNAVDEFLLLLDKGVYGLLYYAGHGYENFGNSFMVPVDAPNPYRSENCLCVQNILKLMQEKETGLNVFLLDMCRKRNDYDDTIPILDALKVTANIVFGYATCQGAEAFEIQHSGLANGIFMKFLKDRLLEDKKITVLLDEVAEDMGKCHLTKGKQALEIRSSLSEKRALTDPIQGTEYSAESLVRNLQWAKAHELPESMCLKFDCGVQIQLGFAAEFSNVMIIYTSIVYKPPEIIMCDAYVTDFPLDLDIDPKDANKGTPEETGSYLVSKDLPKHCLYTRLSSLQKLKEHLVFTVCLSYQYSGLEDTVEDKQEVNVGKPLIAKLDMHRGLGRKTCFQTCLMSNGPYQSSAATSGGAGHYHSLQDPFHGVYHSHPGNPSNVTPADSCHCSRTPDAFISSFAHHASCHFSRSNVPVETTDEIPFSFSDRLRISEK

| IC50 [1] | IC50 [2] | IC50 [3] | IC50 [4] | Compound |
| --- | --- | --- | --- | --- |
| 10 to 100 nM |  |  |  | CC1(C(F)(F)F)CN(C(=O)Nc2cnc(-n3nccn3)c(Cl)c2)c2cnc3cc(C#N)nn3c21 (stereo not shown) [compound 17, N-[5-chloro-6-(triazol-2-yl)-3-pyridyl]-11-cyano-3-methyl-3-(trifluoromethyl)-1,5,8,12-tetrazatricyclo[7.3.0.02,6]dodeca-2(6),7,9,11-tetraene-5-carboxamide] |
| 10 to 100 nM |  |  |  | C[C@@]1(C(F)(F)F)CN(C(=O)Nc2cnc(-n3cc(C#N)cn3)c(Cl)c2)c2cnc3cc(Cl)nn3c21 [compound 22, (R)-2-chloro-N-(5-chloro-6-(4-cyano-1H-pyrazol-1-yl)pyridin-3-yl)-8-methyl-8-(trifluoromethyl)-7,8-dihydro-6H-pyrazolo[1,5-a]pyrrolo[2,3-e]pyrimidine-6-carboxamide] |
| 10 to 100 nM |  |  |  | C[C@@]1(C(F)(F)F)CN(C(=O)Nc2cnc(N3CCCC3)c(Cl)c2)c2cnc3cc(Cl)nn3c21 [compound 23, (R)-2-chloro-N-(5-chloro-6-(pyrrolidin-1-yl)pyridin-3-yl)-8-methyl-8-(trifluoromethyl)-7,8-dihydro-6H-pyrazolo[1,5-a]pyrrolo[2,3-e]pyrimidine-6-carboxamide] |
|  | 10 to 100 nM | 10 to 100 nM |  | COc1cn(-c2ncc(NC(=O)N3C[C@@](C)(C(F)(F)F)c4c3cnc3cc(Cl)nn43)cc2Cl)nn1 [compound 95, (R)-2-chloro-N-(5-chloro-6-(4-methoxy-1H-1,2,3-triazol-1-yl)pyridin-3-yl)-8-methyl-8-(trifluoromethyl)-7,8-dihydro-6H-pyrazolo[1,5-a]pyrrolo[2,3-e]pyrimidine-6-carboxamide] |
|  | 10 to 100 nM | 100 to 1000 nM |  | C[C@@]1(C(F)(F)F)CN(C(=O)Nc2cc(C(F)(F)F)ncc2F)c2cnc3cc(Cl)nn3c21 [compound 96, (R)-2-chloro-N-(5-fluoro-2-(trifluoromethyl)pyridin-4-yl)-8-methyl-8-(trifluoromethyl)-7,8-dihydro-6H-pyrazolo[1,5-a]pyrrolo[2,3-e]pyrimidine-6-carboxamide] |
|  | 10 to 100 nM | 10 to 100 nM | 10 to 100 nM | CN1CC[C@H](Oc2cc(NC(=O)N3C[C@@](C)(C(F)(F)F)c4c3cnc3cc(Cl)nn43)cc(C(F)F)n2)C1 [compound 111, (R)-2-chloro-N-(2-(difluoromethyl)-6-(((S)-1-methylpyrrolidin-3-yl)oxy)pyridin-4-yl)-8-methyl-8-(trifluoromethyl)-7,8-dihydro-6H-pyrazolo[1,5-a]pyrrolo[2,3-e]pyrimidine-6-carboxamide] |
|  | 10 to 100 nM | 10 to 100 nM | 100 to 1000 nM | C[C@@]1(C(F)(F)F)CN(C(=O)Nc2cnc(N3CCOC3=O)c(C(F)F)c2)c2cnc3cc(Cl)nn3c21 [compound 113, (R)-2-chloro-N-(5-(difluoromethyl)-6-(2-oxooxazolidin-3-yl)pyridin-3-yl)-8-methyl-8-(trifluoromethyl)-7,8-dihydro-6H-pyrazolo[1,5-a]pyrrolo[2,3-e]pyrimidine-6-carboxamide] |
|  | 10 to 100 nM | 10 to 100 nM | 10 to 100 nM | CN(C)C(=O)c1ncc(NC(=O)N2C[C@@](C)(C(F)(F)F)c3c2cnc2cc(Cl)nn32)cc1Cl [compound 123, (R)-2-chloro-N-(5-chloro-6-(dimethylcarbamoyl)pyridin-3-yl)-8-methyl-8-(trifluoromethyl)-7,8-dihydro-6H-pyrazolo[1,5-a]pyrrolo[2,3-e]pyrimidine-6-carboxamide] |
|  | 10 to 100 nM | 10 to 100 nM | 100 to 1000 nM | C[C@@]1(C(F)(F)F)CN(C(=O)Nc2cc(OC(F)F)cc(O[C@H]3CCNC3)n2)c2cnc3cc(Cl)nn3c21 [compound 133, (R)-2-chloro-N-(4-(difluoromethoxy)-6-(((S)-pyrrolidin-3-yl)oxy)pyridin-2-yl)-8-methyl-8-(trifluoromethyl)-7,8-dihydro-6H-pyrazolo[1,5-a]pyrrolo[2,3-e]pyrimidine-6-carboxamide] |
|  | 10 to 100 nM | 10 to 100 nM | 100 to 1000 nM | Cc1cn2ncc3c(c2n1)C(C)(C)CN3C(=O)Nc1cnc(-n2nccn2)c(Cl)c1 [compound 134, N-(5-chloro-6-(2H-1,2,3-triazol-2-yl)pyridin-3-yl)-2,9,9-trimethyl-8,9-dihydro-7H-imidazo[1,2-b]pyrrolo[3,2-d]pyridazine-7-carboxamide] |
|  |  | 10 to 100 nM | 10 to 100 nM | C[C@@]1(C(F)(F)F)CN(C(=O)Nc2cnc(-n3nccn3)c(C(F)(F)F)c2)c2cnc3cc(F)nn3c21 [compound 181, (R)-N-(6-(2H-1,2,3-triazol-2-yl)-5-(trifluoromethyl)pyridin-3-yl)-2-fluoro-8-methyl-8-(trifluoromethyl)-7,8-dihydro-6H-pyrazolo[1,5-a]pyrrolo[2,3-e]pyrimidine-6-carboxamide] |
|  | 10 to 100 nM | 10 to 100 nM | 100 to 1000 nM | CC(O)c1cnnn1-c1ncc(NC(=O)N2C[C@@](C)(C(F)(F)F)c3c2cnc2cc(F)nn32)cc1C(F)F (stereo partly drawn) [compound 188, (8R)-N-(5-(difluoromethyl)-6-(5-(1-hydroxyethyl)-1H-1,2,3-triazol-1-yl)pyridin-3-yl)-2-fluoro-8-methyl-8-(trifluoromethyl)-7,8-dihydro-6H-pyrazolo[1,5-a]pyrrolo[2,3-e]pyrimidine-6-carboxamide] |
|  |  | 10 to 100 nM | 10 to 100 nM | CC(O)c1cnn(-c2ncc(NC(=O)N3C[C@@](C)(C(F)(F)F)c4c3cnc3cc(F)nn43)cc2C(F)F)n1 (stereo partly drawn) [compound 191, (8R)-N-(5-(difluoromethyl)-6-(4-(1-hydroxyethyl)-2H-1,2,3-triazol-2-yl)pyridin-3-yl)-2-fluoro-8-methyl-8-(trifluoromethyl)-7,8-dihydro-6H-pyrazolo[1,5-a]pyrrolo[2,3-e]pyrimidine-6-carboxamide] |
|  |  | 10 to 100 nM | 10 to 100 nM | O=C(Nc1cnc(-n2nccn2)c(Cl)c1)N1CC(O)(C(F)(F)F)c2c1cnc1cc(Cl)nn21 (stereo not shown) [compound 201, 2-chloro-N-(5-chloro-6-(2H-1,2,3-triazol-2-yl)pyridin-3-yl)-8-hydroxy-8-(trifluoromethyl)-7,8-dihydro-6H-pyrazolo[1,5-a]pyrrolo[2,3-e]pyrimidine-6-carboxamide] |
|  | 10 to 100 nM | 10 to 100 nM | 100 to 1000 nM | C[C@@]1(C(F)(F)F)CN(C(=O)Nc2cnc(-n3cncn3)c(Cl)c2)c2cnc3cc(F)nn3c21 [compound 202, (R)-N-(5-chloro-6-(1H-1,2,4-triazol-1-yl)pyridin-3-yl)-2-fluoro-8-methyl-8-(trifluoromethyl)-7,8-dihydro-6H-pyrazolo[1,5-a]pyrrolo[2,3-e]pyrimidine-6-carboxamide] |
